Measured values as given in US5523296A, “1,3-benzodioxole and 1,2-dialkoxybenzene derivatives as ocular hypotensive agents” (Allergan, Inc., priority 1994, dated 1996).

Legend:
[1] = system: intraocular pressure in dog eyes; experiment: intraocular pressure in eyes of dogs (pneumatonometry); format: in vivo, beagle dogs; conditions: 6 hours after administr., dog eye
Method: The assay is descibed as follows: male and female beagle dogs weighing 10-15 kg had been trained for a minimum of 2 months so that intraocular pressure could be measured without the use of restraining devices. Intraocular pressure was measured by pneumatonometry using applanation tonometers (Alcon). One minute prior to tonometry, 25 μl of proparacaine (Allergan, Irvine Calif.) was applied to minimize ocular discomfort during the procedure. Determination of the effects of the compounds of the invention on intraocular pressure involved administration of 1 to 25 μl of solution of the compound to one eye and an equal volume of vehicle to the contralateral eye as a control.
The effect of the compounds of the invention to lower intraocular pressure in dog eyes, in accordance with the above-described assay is shown in Table 1 with respect to the following compounds: […]

Swiss 3T3 cells = experiment: inhibition of DNA synthesis: incorporation of tritium labeled thymidine into Swiss 3T3 cells; format: cell-based, mouse; conditions: 22 hours incubation, 5 hours pulse-labeling, CPM per μg DNA, mean of quadruplicates, vehicle 2601
Method: In addition, compounds of the invention were also found to inhibit DNA synthesis as observed in an assay where the incorporation of tritium labeled thymidine into Swiss 3T3 cells is measured. The assay is described as follows.
Swiss mouse 3T3 cells were maintained in Dulbecco's modified Eagle's medium (DMEM) low glucose and supplemented with 10% fetal bovine serum FBS), 2 mM 1-glutamine and 1% antibiotic-antimycotic 100×. The cultures were incubated in 5% CO2 in air at 37° C. Confluent cultures were trypsinized and plated in quadruplicate cultures for experiments. Cells were plated at 1×10^5 cells per 35 mm well in DMEM containing 10% FBS in 6-well cluster plates and allowed to become confluent in 3 days. The cells were then made quiescent by washing them with Hank's balanced salt solution (HBSS) and incubating them for 24 hours in DMEM with 0.5% FBS. The cultures were then refed fresh DMEM containing 0.5% FBS and various concentrations of the test compounds. All compounds were dissolved in absolute ethanol, diluted with sterile filtered normal saline and added to the medium so that the final ethanol control cultures were incubated in medium containing 0.01% or less […]. […]
Pulse-labeling of the cultures consisted of collecting the conditioned, drug-treated or control containing media, then adding 1μ Ci/ml [^3 H]-TdR and incubating the cultures in the [^3 H]-TdR containing medium for 5 hours. […] Radioactivity was measured by liquid-scintillation counting using Beckman HP cocktail. […] After centrifugation as before, an aliquot of the supernatant containing [^3 H]-TdR incorporated into DNA (S2) was assayed for radioactivity by scintillation counting.
An aliquot of the remaining S2 supernatant was assayed for quantity of DNA by the diphenylamine method. […] Absorbance of the DNA standards and samples was measured in a Beckman Biomek spectrophotometer at 600 nm wavelength.
The data was expressed as CPM ([^3 H]-TdR incorporated into DNA) per μg DNA and the mean of the quadruplicate samples was obtained for each experiment. […]

| SMILES | Change in IOP ([1]; 0.1 %) | also measured |
| --- | --- | --- |
| CCCCCC(O)c1cc2c(cc1CCCCCO)OCO2 (racemic) [Compound 3, (±)-5-[6-(1-hydroxy)hexyl]-1,3-benzodioxol-5-yl]-pentanol] | -4.2 mm of Hg | Change in IOP ([1]; 0.01 %): -3.0 mm of Hg |
| CCCCCC(O)c1cc(OC)c(OC)cc1CCCCC(=O)O (racemic) [Compound 4, (±)-5-[2-(1-Hydroxy)hexyl-4,5-dimethoxyphenyl-]-1-pentanoic acid] | -1.2 mm of Hg | – |
| OCCCCCc1cc2c(cc1C(O)CCc1ccccc1)OCO2 (racemic) [Compound 2, (±)-5-[6-(1-hydroxy-3-phenylpropyl)]-1,3-benzodioxol-5yl]pentanol] | -1.25 mm of Hg | – |
| CCCCCC(O)c1cc2c(cc1CCCCC(=O)O)OCO2 (racemic) [Compound 5, (±)-5-[6-(1-hydroxy)hexyl]-1,3-benzodioxol-5-yl]-pentanoic acid] | – | CPM ([3H]-TdR incorporated into DNA) (Swiss 3T3 cells; 10^-5 M): 1454 CPM; CPM ([3H]-TdR incorporated into DNA) (Swiss 3T3 cells; 10^-6 M): 1598 CPM; CPM ([3H]-TdR incorporated into DNA) (Swiss 3T3 cells; 10^-7 M): 2102 CPM |
| COC(=O)CCCCc1cc2c(cc1C(O)CCc1ccccc1)OCO2 (racemic) [Compound 1, (±)-Methyl5-[6-(1-hydroxy-3-phenylpropyl)]-1,3-benzodioxol-5-yl]-pentanoate] | -1.0 mm of Hg | – |
| O=C(O)CCCCc1cc2c(cc1C(O)CCc1cccs1)OCO2 (racemic) [Compound 7, (±)-5-[[6-(1-hydroxy-3-(2-thienyl)propyl)]-1,3-benzodioxolyl]pentanoic acid] | -1.0 mm of Hg | – |
| OCCCCCc1cc2c(cc1C(O)CCc1cccs1)OCO2 (racemic) [Compound 6, (±)-5-[[6-(1-hydroxy-3-(2-thienyl)propyl]-1,3-benzodioxolyl]pentanol] | -1.1 mm of Hg | – |
